From the supplement of paper PMC10307832

Legend:
Experiment in all cases: relative viability (nuclei count vs DMSO), 5 days (fraction); higher = more cells survive
IPA-3 + Luminespib = compound: C1=CC=C2C(=C1)C=CC(=C2SSC3=C(C=CC4=CC=CC=C43)O)O [IPA-3] + CCNC(=O)c1noc(-c2cc(C(C)C)c(O)cc2O)c1-c1ccc(CN2CCOCC2)cc1 [Luminespib] (partner 0.01 µM)
Summary of the method: (§1)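 Five library-drug doses in √10 steps were combined with a fixed anchor-drug dose, or a single drug was given alone, by pin tool to lung cancer cell lines in 1536-well plates the day after seeding. Nuclei were stained and counted after 5 days. Relative viability is the nuclei count in treated wells over that in vehicle wells, taken as the median of duplicate plates.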

RAF265 + Vorinostat = compound: Cn1c(Nc2ccc(C(F)(F)F)cc2)nc2cc(Oc3ccnc(-c4ncc(C(F)(F)F)[nH]4)c3)ccc21 [RAF265] + O=C(CCCCCCC(=O)Nc1ccccc1)NO [Vorinostat] (partner 1 µM)
Summary of the method: as §1

Doramapimod + Vorinostat = compound: Cc1ccc(-n2nc(C(C)(C)C)cc2NC(=O)Nc2ccc(OCCN3CCOCC3)c3ccccc23)cc1 [Doramapimod] + O=C(CCCCCCC(=O)Nc1ccccc1)NO [Vorinostat] (partner 1 µM)
Summary of the method: as §1

RAF265 + Pictilisib = compound: Cn1c(Nc2ccc(C(F)(F)F)cc2)nc2cc(Oc3ccnc(-c4ncc(C(F)(F)F)[nH]4)c3)ccc21 [RAF265] + CS(=O)(=O)N1CCN(Cc2cc3nc(-c4cccc5[nH]ncc45)nc(N4CCOCC4)c3s2)CC1 [Pictilisib] (partner 1 µM)
Summary of the method: as §1

Cell Line | relative viability (IPA-3 + Luminespib; first compound 0.2 µM) | relative viability (IPA-3 + Luminespib; first compound 0.6325 µM) | relative viability (IPA-3 + Luminespib; first compound 2 µM) | relative viability (IPA-3 + Luminespib; first compound 6.325 µM) | relative viability (IPA-3 + Luminespib; first compound 20 µM) | relative viability (RAF265 + Vorinostat; first compound 0.01 µM) | relative viability (RAF265 + Vorinostat; first compound 0.03162 µM) | relative viability (RAF265 + Vorinostat; first compound 0.1 µM) | relative viability (RAF265 + Vorinostat; first compound 0.3162 µM) | relative viability (RAF265 + Vorinostat; first compound 1 µM) | relative viability (Doramapimod + Vorinostat; first compound 0.02 µM) | relative viability (Doramapimod + Vorinostat; first compound 0.06325 µM) | relative viability (Doramapimod + Vorinostat; first compound 0.2 µM) | relative viability (Doramapimod + Vorinostat; first compound 0.6325 µM) | relative viability (Doramapimod + Vorinostat; first compound 2 µM) | relative viability (RAF265 + Pictilisib; first compound 0.01 µM) | relative viability (RAF265 + Pictilisib; first compound 0.03162 µM) | relative viability (RAF265 + Pictilisib; first compound 0.1 µM) | relative viability (RAF265 + Pictilisib; first compound 0.3162 µM) | relative viability (RAF265 + Pictilisib; first compound 1 µM)
LCLC-103H | 1.09 | 1 | 0.916 | 0.929 | 0.926 | 0.844 | 0.892 | 0.683 | 0.565 | 0.422 | 0.788 | 0.799 | 0.875 | 0.845 | 0.751 | 0.616 | 0.615 | 0.638 | 0.431 | 0.422
LK-2 | 0.179 | 0.193 | 0.17 | 0.189 | 0.222 | 0.361 | 0.245 | 0.328 | 0.404 | 0.2 | 0.283 | 0.296 | 0.266 | 0.242 | 0.29 | 0.528 | 0.669 | 0.604 | 0.531 | 0.403
LOU-NH91 | 0.326 | 0.26 | 0.332 | 0.33 | 0.358 | 1 | 0.807 | 0.926 | 0.755 | 0.712 | 0.966 | 0.944 | 0.945 | 0.847 | 0.632 | 0.529 | 0.487 | 0.495 | 0.481 | 0.474
LU99A | 0.295 | 0.179 | 0.292 | 0.206 | 0.214 | 0.515 | 0.447 | 0.402 | 0.286 | 0.261 | 0.443 | 0.455 | 0.578 | 0.53 | 0.474 | 0.324 | 0.269 | 0.233 | 0.21 | 0.187
LXF-289 | 0.844 | 0.648 | 0.646 | 0.814 | 0.691 | 0.768 | 0.752 | 0.754 | 0.606 | 0.571 | 0.811 | 0.775 | 0.747 | 0.723 | 0.635 | 0.857 | 0.655 | 0.577 | 0.361 | 0.374
NCI-H23 | 0.221 | 0.224 | 0.201 | 0.227 | 0.204 | 0.701 | 0.496 | 0.39 | 0.248 | 0.229 | 0.633 | 0.563 | 0.554 | 0.656 | 0.473 | 0.545 | 0.429 | 0.393 | 0.245 | 0.206
NCI-H322M | 0.964 | 0.722 | 1.08 | 1.02 | 1.13 | 0.875 | 0.866 | 0.516 | 0.403 | 0.348 | 0.889 | 0.943 | 0.979 | 0.998 | 0.94 | 0.48 | 0.487 | 0.406 | 0.308 | 0.252
NCI-H358 | 0.535 | 0.313 | 0.265 | 0.385 | 0.255 | 0.744 | 0.564 | 0.613 | 0.459 | 0.178 | 0.69 | 0.669 | 0.66 | 0.762 | 0.594 | 0.398 | 0.298 | 0.28 | 0.261 | 0.249
NCI-H441 | 0.401 | 0.29 | 0.407 | 0.324 | 0.422 | 0.802 | 0.712 | 0.643 | 0.715 | 0.421 | 0.72 | 0.851 | 0.591 | 0.798 | 0.644 | 0.572 | 0.466 | 0.304 | 0.261 | 0.206
NCI-H460 | 0.0346 | 0.0286 | 0.0329 | 0.0351 | 0.0331 | 0.756 | 0.692 | 0.671 | 0.668 | 0.642 | 0.773 | 0.817 | 0.76 | 0.794 | 0.551 | 0.5 | 0.455 | 0.403 | 0.201 | 0.179
NCI-H520 | 0.213 | 0.3 | 0.266 | 0.244 | 0.247 | 0.777 | 0.579 | 0.688 | 0.572 | 0.55 | 0.672 | 0.755 | 0.653 | 0.731 | 0.609 | 0.273 | 0.246 | 0.234 | 0.228 | 0.15
NCI-H596 | 1.17 | 0.955 | 1.04 | 0.637 | 0.662 | 0.809 | 0.642 | 0.642 | 0.589 | 0.522 | 0.643 | 0.672 | 0.616 | 0.605 | 0.561 | 0.417 | 0.338 | 0.372 | 0.381 | 0.274
NCI-H647 | 0.192 | 0.148 | 0.176 | 0.142 | 0.102 | 0.627 | 0.411 | 0.585 | 0.397 | 0.356 | 0.336 | 0.621 | 0.429 | 0.548 | 0.381 | 0.38 | 0.342 | 0.383 | 0.259 | 0.208
NCI-H650 | 0.964 | 0.851 | 0.733 | 0.805 | 1.06 | 0.442 | 0.418 | 0.42 | 0.277 | 0.232 | 0.534 | 0.568 | 0.423 | 0.414 | 0.456 | 0.805 | 0.94 | 0.766 | 0.698 | 0.466
NCI-H661 | 0.911 | 0.874 | 0.919 | 0.866 | 0.921 | 0.834 | 0.698 | 0.639 | 0.554 | 0.568 | 0.815 | 0.74 | 0.797 | 0.788 | 0.767 | 0.438 | 0.498 | 0.383 | 0.288 | 0.283
NCI-H727 | 0.318 | 1.29 | 0.755 | 0.33 | 0.24 | 1.26 | 1.16 | 1.03 | 1.24 | 0.862 | 1.18 | 1.18 | 1.14 | 1.05 | 1.1 | 0.546 | 0.302 | 0.325 | 0.252 | 0.22
